{"source": "patent US8486863B2", "about": "“Activators of lateral root formation” (VIB VZW, priority 2006, dated 2013)", "key": {"[1]": {"tested_on": "Wild-type Arabidopsis thaliana", "assay": "Dose-response analysis of lateral root density and root length", "format": "in vivo", "description": "FIG. 3: Dose-response analysis of class 1 (upper panel) and class 2 (lower panel) activators. Wild-type Arabidopsis thaliana seeds were germinated under standard conditions on agar plates. After 3 days of germination, seedlings were transferred to agar plates containing compound at different concentrations. Lateral root density was measured 10 days after germination. Bars represent standard errors.\nFIG. 4: Dose-response analysis of A2, A11, A12, A14 and NAA. Wild-type Arabidopsis thaliana seeds were germinated under standard conditions on agar plates. After 3 days of germination, seedlings were transferred to agar plates containing compound at different concentrations and 1% DMSO. Plants transferred to agar plates containing 1% DMSO and no compound were used as controls. Lateral root density (left panels) and root length (right panels) were measured 10 days after germination. Bars represent standard errors.\nFor further phenotypic analysis, all plants were grown on vertically oriented square plates (Greiner Labortechnik, Austria) with solid medium derived from standard MS medium under the same conditions. 3 DAG plants were transferred to medium supplemented with compounds and were left to grow for another 7 days. After this, root length and number of LRs were counted using ImageJ 1.34 freeware.\nAs a subsequent step, the phenotypic effect of the 16 selected activators was determined in a dose-response analysis in which LR density (number of LRs per cm) was quantified (FIG. 3). Based upon potency and structure, two different classes of activators could be identified."}, "[2]": {"tested_on": "auxin signaling mutants", "assay": "Effect of A12 and NAA on lateral root density and root length of auxin signaling mutants (Table 1)", "format": "in vivo, Arabidopsis thaliana", "set-up": "Root length: unit not given here", "settings": "3 uM", "description": "(§1) Afb1, Afb2, Afb3 and the triple mutant Tirlafb2afb3 were described by Dhamasiri et al. (2005). Tir1 was described by Ruegger et al., (1998); 1aa28 by Rogg et al., (2001); Tir7-1 by Ruegger et al., (1997); the Cyp79b2b3 double mutant by Ljung et al. (2005); the arf7arf19 double mutant by Fukaki et al., (2005); Aux1 by Bennett et al., (1996); Xbat32 by Nodzon et al., (2004), Axr1-12 by Timpte et al., (1995), Slr1 by Fukaki et al., 2002 and Axr3-1 by Collet et al., (2000) and the mutants were obtained from the publishing authors.\n(§2) For phenotypic analysis, all mutants were grown on vertically oriented square plates (Greiner Labortechnik, Austria) with solid medium derived from standard MS medium. The plates were put in a growth chamber under continuous light (110 μE.m2.s1 photosynthetically active radiation, supplied by cool-white fluorescent tungsten tubes; Osram) at 22° C. Three days after germination, the mutant plants were transferred to medium supplemented with compounds and were left to grow for another 7 days. After this, root length and number of lateral roots were counted using ImageJ 1.34 freeware.\nDMSO is used as negative control."}, "[3]": {"tested_on": "auxin signaling mutants", "assay": "Effect of activators on lateral root density of auxin signaling mutants (Table 2)", "format": "in vivo, Arabidopsis thaliana", "description": "as §1, §2"}, "[4]": {"settings": "tir TM (Tir1afb2afb3 triple mutant)"}}}
{"smiles": "O=C(O)Cc1cccc2ccccc12", "note": "[NAA, 1-naphthylacetic acid, reference compound]", "values": [{"measurement": "LR density response to increasing compound concentration", "setting": "[1]; FIG. 4", "result": "threshold-like mechanism"}, {"measurement": "compound concentration that increased root density five times compared to controls", "setting": "[1]; FIG. 4, 10 days after germination", "result": 1.5, "unit": "µM"}, {"measurement": "Root length", "setting": "[1]; at the concentration that increased root density five times (20 μM A11, 1.5 μM NAA)", "result": "0.2 times the root length of controls"}, {"measurement": "Root length", "setting": "[2]; CDKB DN", "result": 0.42}, {"measurement": "LR density", "setting": "[2]; Col-0", "result": 52.98}, {"measurement": "Root length", "setting": "[2]; Col-0", "result": 1.08}, {"measurement": "LR density", "setting": "[2]; Ws", "result": 45.59}, {"measurement": "Root length", "setting": "[2]; Ws", "result": 0.87}, {"measurement": "LR density", "setting": "[2]; Xbat32", "result": 36.83}, {"measurement": "Root length", "setting": "[2]; Xbat32", "result": 1.33}, {"measurement": "LR density", "setting": "[2]; afb1-1", "result": 51.36}, {"measurement": "Root length", "setting": "[2]; afb1-1", "result": 0.93}, {"measurement": "LR density", "setting": "[2]; afb2-1", "result": 51.08}, {"measurement": "Root length", "setting": "[2]; afb2-1", "result": 0.87}, {"measurement": "LR density", "setting": "[2]; afb3-1", "result": 46.76}, {"measurement": "Root length", "setting": "[2]; afb3-1", "result": 0.94}, {"measurement": "Root length", "setting": "[2]; arf7arf19 DM (double mutant)", "result": 0.87}, {"measurement": "Root length", "setting": "[2]; aux1", "result": 0.93}, {"measurement": "LR density", "setting": "[2]; axr1-12", "result": 40.22}, {"measurement": "Root length", "setting": "[2]; axr1-12", "result": 1.12}, {"measurement": "LR density", "setting": "[2]; axr5-1", "result": 27.56}, {"measurement": "Root length", "setting": "[2]; axr5-1", "result": 1.27}, {"measurement": "LR density", "setting": "[2]; cyp79b2-3 DM (double mutant)", "result": 37.27}, {"measurement": "Root length", "setting": "[2]; cyp79b2-3 DM (double mutant)", "result": 1.43}, {"measurement": "LR density", "setting": "[2]; iaa28-1", "result": 48.10}, {"measurement": "Root length", "setting": "[2]; iaa28-1", "result": 0.86}, {"measurement": "LR density", "setting": "[2]; lax3", "result": 63.09}, {"measurement": "Root length", "setting": "[2]; lax3", "result": 1.02}, {"measurement": "LR density", "setting": "[2]; msg2-1", "result": 37.22}, {"measurement": "Root length", "setting": "[2]; msg2-1", "result": 1.13}, {"measurement": "LR density", "setting": "[2]; slr-1", "result": 0.00}, {"measurement": "Root length", "setting": "[2]; slr-1", "result": 0.84}, {"measurement": "LR density", "setting": "[2]; tir1-1", "result": 57.73}, {"measurement": "Root length", "setting": "[2]; tir1-1", "result": 0.99}, {"measurement": "LR density", "setting": "[2]; tir7-1", "result": 41.72}, {"measurement": "Root length", "setting": "[2]; tir7-1", "result": 0.87}, {"measurement": "LR density", "setting": "[2]; [4]", "result": 47.00}, {"measurement": "Root length", "setting": "[2]; [4]", "result": 0.80}, {"measurement": "lateral root density", "setting": "[3]; Afb1-1, 0.1 uM", "result": 13.49, "unit": "LR/cm"}, {"measurement": "lateral root density", "setting": "[3]; Afb1-1, 0.3 uM", "result": 8.76, "unit": "LR/cm"}, {"measurement": "lateral root density", "setting": "[3]; Afb1-1, 1 uM", "result": 21.43, "unit": "LR/cm"}, {"measurement": "lateral root density", "setting": "[3]; Afb1-1, 3 uM", "result": 47.81, "unit": "LR/cm"}, {"measurement": "lateral root density", "setting": "[3]; Afb2-1, 0.1 uM", "result": 14.57, "unit": "LR/cm"}, {"measurement": "lateral root density", "setting": "[3]; Afb2-1, 0.3 uM", "result": 8.98, "unit": "LR/cm"}, {"measurement": "lateral root density", "setting": "[3]; Afb2-1, 1 uM", "result": 28.72, "unit": "LR/cm"}, {"measurement": "lateral root density", "setting": "[3]; Afb2-1, 3 uM", "result": 59.72, "unit": "LR/cm"}, {"measurement": "lateral root density", "setting": "[3]; Afb3-1, 0.1 uM", "result": 15.27, "unit": "LR/cm"}, {"measurement": "lateral root density", "setting": "[3]; Afb3-1, 0.3 uM", "result": 8.93, "unit": "LR/cm"}, {"measurement": "lateral root density", "setting": "[3]; Afb3-1, 1 uM", "result": 27.72, "unit": "LR/cm"}, {"measurement": "lateral root density", "setting": "[3]; Afb3-1, 3 uM", "result": 55.01, "unit": "LR/cm"}, {"measurement": "lateral root density", "setting": "[3]; Arf7Arf19, 0.1 uM", "result": 0.00, "unit": "LR/cm"}, {"measurement": "lateral root density", "setting": "[3]; Arf7Arf19, 0.3 uM", "result": 0.00, "unit": "LR/cm"}, {"measurement": "lateral root density", "setting": "[3]; Arf7Arf19, 1 uM", "result": 0.17, "unit": "LR/cm"}, {"measurement": "lateral root density", "setting": "[3]; Arf7Arf19, 3 uM", "result": 13.18, "unit": "LR/cm"}, {"measurement": "lateral root density", "setting": "[3]; Arf16, 0.1 uM", "result": 8.05, "unit": "LR/cm"}, {"measurement": "lateral root density", "setting": "[3]; Arf16, 0.3 uM", "result": 6.63, "unit": "LR/cm"}, {"measurement": "lateral root density", "setting": "[3]; Arf16, 1 uM", "result": 10.83, "unit": "LR/cm"}, {"measurement": "lateral root density", "setting": "[3]; Arf16, 3 uM", "result": 17.17, "unit": "LR/cm"}, {"measurement": "lateral root density", "setting": "[3]; Arf17, 0.1 uM", "result": 6.57, "unit": "LR/cm"}, {"measurement": "lateral root density", "setting": "[3]; Arf17, 0.3 uM", "result": 10.34, "unit": "LR/cm"}, {"measurement": "lateral root density", "setting": "[3]; Arf17, 1 uM", "result": 0.47, "unit": "LR/cm"}, {"measurement": "lateral root density", "setting": "[3]; Arf17, 3 uM", "result": 24.68, "unit": "LR/cm"}, {"measurement": "lateral root density", "setting": "[3]; Axrt-12, 0.1 uM", "result": 8.04, "unit": "LR/cm"}, {"measurement": "lateral root density", "setting": "[3]; Axrt-12, 0.3 uM", "result": 9.25, "unit": "LR/cm"}, {"measurement": "lateral root density", "setting": "[3]; Axrt-12, 1 uM", "result": 9.03, "unit": "LR/cm"}, {"measurement": "lateral root density", "setting": "[3]; Axrt-12, 3 uM", "result": 27.55, "unit": "LR/cm"}, {"measurement": "lateral root density", "setting": "[3]; Cyp79, 0.1 uM", "result": 15.83, "unit": "LR/cm"}, {"measurement": "lateral root density", "setting": "[3]; Cyp79, 0.3 uM", "result": 6.85, "unit": "LR/cm"}, {"measurement": "lateral root density", "setting": "[3]; Cyp79, 1 uM", "result": 22.20, "unit": "LR/cm"}, {"measurement": "lateral root density", "setting": "[3]; Cyp79, 3 uM", "result": 50.78, "unit": "LR/cm"}, {"measurement": "lateral root density", "setting": "[3]; Iaa28-1, 0.1 uM", "result": 3.57, "unit": "LR/cm"}, {"measurement": "lateral root density", "setting": "[3]; Iaa28-1, 0.3 uM", "result": 7.46, "unit": "LR/cm"}, {"measurement": "lateral root density", "setting": "[3]; Iaa28-1, 1 uM", "result": 11.92, "unit": "LR/cm"}, {"measurement": "lateral root density", "setting": "[3]; Iaa28-1, 3 uM", "result": 40.09, "unit": "LR/cm"}, {"measurement": "lateral root density", "setting": "[3]; Tir1-1, 0.1 uM", "result": 5.14, "unit": "LR/cm"}, {"measurement": "lateral root density", "setting": "[3]; Tir1-1, 0.3 uM", "result": 11.34, "unit": "LR/cm"}, {"measurement": "lateral root density", "setting": "[3]; Tir1-1, 1 uM", "result": 6.74, "unit": "LR/cm"}, {"measurement": "lateral root density", "setting": "[3]; Tir1-1, 3 uM", "result": 18.30, "unit": "LR/cm"}, {"measurement": "lateral root density", "setting": "[3]; Tir7-1, 0.1 uM", "result": 15.76, "unit": "LR/cm"}, {"measurement": "lateral root density", "setting": "[3]; Tir7-1, 0.3 uM", "result": 5.78, "unit": "LR/cm"}, {"measurement": "lateral root density", "setting": "[3]; Tir7-1, 1 uM", "result": 14.79, "unit": "LR/cm"}, {"measurement": "lateral root density", "setting": "[3]; Tir7-1, 3 uM", "result": 46.33, "unit": "LR/cm"}, {"measurement": "lateral root density", "setting": "[3]; TirTM, 0.1 uM", "result": 8.04, "unit": "LR/cm"}, {"measurement": "lateral root density", "setting": "[3]; TirTM, 0.3 uM", "result": 18.89, "unit": "LR/cm"}, {"measurement": "lateral root density", "setting": "[3]; TirTM, 1 uM", "result": 15.81, "unit": "LR/cm"}, {"measurement": "lateral root density", "setting": "[3]; TirTM, 3 uM", "result": 45.09, "unit": "LR/cm"}, {"measurement": "lateral root density", "setting": "[3]; Xbat32, 0.1 uM", "result": 4.27, "unit": "LR/cm"}, {"measurement": "lateral root density", "setting": "[3]; Xbat32, 0.3 uM", "result": 9.26, "unit": "LR/cm"}, {"measurement": "lateral root density", "setting": "[3]; Xbat32, 1 uM", "result": 12.70, "unit": "LR/cm"}, {"measurement": "lateral root density", "setting": "[3]; Xbat32, 3 uM", "result": 33.67, "unit": "LR/cm"}]}
